Experimental data taken from ChEMBL document CHEMBL1208676, “Synthesis and in vitro antimycobacterial activity of balofloxacin ethylene isatin derivatives” (Eur J Med Chem, 2010).
Converted amounts (≈) assume the structure as drawn.

Key:
Mycolicibacterium phlei = assay: Antimycobacterial activity against Mycobacterium phlei CMCC 93201 after 72 hrs by serial double dilution method; assay type: functional; settings: CMCC 93201, 72 h
[1] = system: Mycolicibacterium smegmatis; assay: Antimycobacterial activity against Mycobacterium smegmatis CMCC 93202 after 72 hrs by serial double dilution method; assay type: functional; settings: CMCC 93202, 72 h
[2] = Cytotoxicity against african green monkey Vero cells after 72 hrs by MTT assay; assay type: cell-based; settings: chlorocebus sabaeus
[3] = system: Mycobacterium tuberculosis; assay: Antimycobacterial activity against Mycobacterium tuberculosis 09710 after 72 hrs by serial double dilution method; assay type: functional; settings: Mycobacterium tuberculosis, 09710, 72 h
[4] = Lipophilicity, log P of the compound; assay type: physicochemical; settings: octanol/water
[5] = system: Mycobacterium tuberculosis; assay: Antimycobacterial activity against Mycobacterium tuberculosis H37Rv ATCC 27294 after 72 hrs by serial double dilution method; assay type: functional; settings: H37Rv ATCC 27294, 72 h

COc1c(N2CCCC(N(C)CCN3C(=O)C(=O)c4ccccc43)C2)c(F)cc2c(=O)c(C(=O)O)cn(C3CC3)c12 (centres undefined)
MIC (Mycolicibacterium phlei): 25 µg/mL (≈ 44.4 µM) | MIC [1]: 25 µg/mL (≈ 44.4 µM) | CC50 at 72 h [2]: 137 µM

COc1c(N2CCCC(N(C)CCN3C(=O)C(=O)c4cc(F)ccc43)C2)c(F)cc2c(=O)c(C(=O)O)cn(C3CC3)c12 (centres undefined)
MIC (Mycolicibacterium phlei): 25 µg/mL (≈ 43.1 µM) | MIC [1]: 12.5 µg/mL (≈ 21.5 µM) | MIC [3]: 64 µg/mL (≈ 110 µM) | CC50 at 72 h [2]: 96.2 µM

COc1c(N2CCCC(N(C)CCN3C(=O)/C(=N/O)c4cc(F)ccc43)C2)c(F)cc2c(=O)c(C(=O)O)cn(C3CC3)c12 (centres undefined)
MIC (Mycolicibacterium phlei): 6.25 µg/mL (≈ 10.5 µM) | MIC [1]: 12.5 µg/mL (≈ 21 µM) | CC50 at 72 h [2]: 306 µM

CO/N=C1/C(=O)N(CCN(C)C2CCCN(c3c(F)cc4c(=O)c(C(=O)O)cn(C5CC5)c4c3OC)C2)c2ccccc21 (centres undefined)
MIC (Mycolicibacterium phlei): 3.12 µg/mL (≈ 5.27 µM) | MIC [1]: 6.25 µg/mL (≈ 10.6 µM) | CC50 at 72 h [2]: 15 µM

CO/N=C1/C(=O)N(CCN(C)C2CCCN(c3c(F)cc4c(=O)c(C(=O)O)cn(C5CC5)c4c3OC)C2)c2ccc(F)cc21 (centres undefined)
MIC (Mycolicibacterium phlei): 3.12 µg/mL (≈ 5.12 µM) | MIC [1]: 6.25 µg/mL (≈ 10.3 µM) | CC50 at 72 h [2]: 12.8 µM

CCO/N=C1/C(=O)N(CCN(C)C2CCCN(c3c(F)cc4c(=O)c(C(=O)O)cn(C5CC5)c4c3OC)C2)c2ccccc21 (centres undefined)
MIC (Mycolicibacterium phlei): 3.12 µg/mL (≈ 5.15 µM) | MIC [1]: 6.25 µg/mL (≈ 10.3 µM) | CC50 at 72 h [2]: 60.5 µM | logP [4]: 0.96

CCO/N=C1/C(=O)N(CCN(C)C2CCCN(c3c(F)cc4c(=O)c(C(=O)O)cn(C5CC5)c4c3OC)C2)c2ccc(F)cc21 (centres undefined)
MIC (Mycolicibacterium phlei): 3.12 µg/mL (≈ 5 µM) | MIC [1]: 6.25 µg/mL (≈ 10 µM) | CC50 at 72 h [2]: 53.1 µM | logP [4]: 1.29

COc1c(N2CCCC(N(C)CCN3C(=O)/C(=N\NC(N)=S)c4ccccc43)C2)c(F)cc2c(=O)c(C(=O)O)cn(C3CC3)c12 (centres undefined)
MIC (Mycolicibacterium phlei): 3.12 µg/mL (≈ 4.91 µM) | MIC [1]: 6.25 µg/mL (≈ 9.83 µM) | CC50 at 72 h [2]: 294 µM | logP [4]: 1.4

COc1c(N2CCCC(N(C)CCN3C(=O)/C(=N\NC(N)=S)c4cc(F)ccc43)C2)c(F)cc2c(=O)c(C(=O)O)cn(C3CC3)c12 (centres undefined)
MIC (Mycolicibacterium phlei): 3.12 µg/mL (≈ 4.77 µM) | MIC [1]: 6.25 µg/mL (≈ 9.56 µM) | CC50 at 72 h [2]: 313 µM | logP [4]: 1.8

COc1c(N2CCCC(N(C)CCN3C(=O)/C(=N\NC(N)=O)c4ccccc43)C2)c(F)cc2c(=O)c(C(=O)O)cn(C3CC3)c12 (centres undefined)
MIC (Mycolicibacterium phlei): 12.5 µg/mL (≈ 20.2 µM) | MIC [1]: 12.5 µg/mL (≈ 20.2 µM) | CC50 at 72 h [2]: 56.1 µM

COc1c(N2CCCC(N(C)CCN3C(=O)/C(=N\NC(N)=O)c4cc(F)ccc43)C2)c(F)cc2c(=O)c(C(=O)O)cn(C3CC3)c12 (centres undefined)
MIC (Mycolicibacterium phlei): 6.25 µg/mL (≈ 9.8 µM) | MIC [1]: 6.25 µg/mL (≈ 9.8 µM) | CC50 at 72 h [2]: 57 µM

COc1c(N2CCCC(N(C)CCN3C(=O)/C(=N\Nc4ccccc4)c4ccccc43)C2)c(F)cc2c(=O)c(C(=O)O)cn(C3CC3)c12 (centres undefined)
MIC (Mycolicibacterium phlei): 3.12 µg/mL (≈ 4.78 µM) | MIC [1]: 6.25 µg/mL (≈ 9.58 µM) | CC50 at 72 h [2]: < 6.1 µM

COc1c(N2CCCC(N(C)CCN3C(=O)/C(=N\Nc4ccccc4)c4cc(F)ccc43)C2)c(F)cc2c(=O)c(C(=O)O)cn(C3CC3)c12 (centres undefined)
MIC (Mycolicibacterium phlei): 3.12 µg/mL (≈ 4.65 µM) | MIC [1]: 6.25 µg/mL (≈ 9.32 µM) | CC50 at 72 h [2]: < 6 µM

CNC1CCCN(c2c(F)cc3c(=O)c(C(=O)O)cn(C4CC4)c3c2OC)C1 (centres undefined) [BALOFLOXACIN]
MIC (Mycolicibacterium phlei): 0.78 µg/mL (≈ 2 µM) | MIC [1]: 0.39 µg/mL (≈ 1 µM) | MIC [3]: 16 µg/mL (≈ 41.1 µM) | MIC [5]: 8 µg/mL (≈ 20.5 µM) | CC50 at 72 h [2]: 317 µM | logP [4]: -1.11

COc1c(N2C[C@@H]3CCCN[C@@H]3C2)c(F)cc2c(=O)c(C(=O)O)cn(C3CC3)c12 [MOXIFLOXACIN]
MIC (Mycolicibacterium phlei): 0.2 µg/mL (≈ 0.498 µM) | MIC [1]: 0.1 µg/mL (≈ 0.249 µM) | MIC [3]: < 0.5 µg/mL | MIC [5]: 0.25 µg/mL (≈ 0.623 µM)
